Reference: ChEMBL document CHEMBL3286253, “Design, synthesis, and structure-activity relationship studies of novel thioether pleuromutilin derivatives as potent antibacterial agents” (J Med Chem, 2014)
≈ marks a conversion by molar mass, not a printed value.

Key:
Assay type in all cases: functional
[1] = test system: Staphylococcus epidermidis; test: Antibacterial activity against methicillin-resistant Staphylococcus epidermidis after 16 hrs by agar dilution method
[2] = test system: Staphylococcus aureus; test: Antibacterial activity against Staphylococcus aureus […] after 16 hrs by agar dilution method
[3] = test system: Streptococcus pneumoniae; test: Antibacterial activity against penicillin-resistant Streptococcus pneumoniae after 16 hrs by agar dilution method
[4] = test system: Staphylococcus aureus; test: Antibacterial activity against methicillin-sensitive Staphylococcus aureus after 16 hrs by agar dilution method
[5] = test system: Staphylococcus epidermidis; test: Antibacterial activity against methicillin-sensitive Staphylococcus epidermidis after 16 hrs by agar dilution method
[6] = test system: Staphylococcus aureus; test: Antibacterial activity against methicillin-resistant Staphylococcus aureus after 16 hrs by agar dilution method

Row | SMILES | MIC [1] | MIC [2] | MIC [3] | MIC [4] | MIC [5] | MIC [6]
1 | C=C[C@]1(C)C[C@@H](OC(=O)CSc2cncc(NC(=O)[C@@H](N)[C@@H](C)CC)c2)[C@]2(C)[C@H](C)CC[C@]3(CCC(=O)[C@H]32)[C@@H](C)[C@@H]1O | 0.25 µg/mL (≈ 0.417 µM) | 0.25 µg/mL (≈ 0.417 µM) | 0.25 µg/mL (≈ 0.417 µM) | 0.25 µg/mL (≈ 0.417 µM) | 0.25 µg/mL (≈ 0.417 µM) | 0.25 µg/mL (≈ 0.417 µM)
2 | C=C[C@]1(C)C[C@@H](OC(=O)CSc2cccnn2)[C@]2(C)[C@H](C)CC[C@]3(CCC(=O)[C@H]32)[C@@H](C)[C@@H]1O | 0.063 µg/mL (≈ 0.133 µM) | 0.25 µg/mL (≈ 0.529 µM) | 0.125 µg/mL (≈ 0.264 µM) | 0.125 µg/mL (≈ 0.264 µM) | 0.063 µg/mL (≈ 0.133 µM) | 0.25 µg/mL (≈ 0.529 µM)
3 | C=C[C@]1(C)C[C@@H](OC(=O)CSc2cccs2)[C@]2(C)[C@H](C)CC[C@]3(CCC(=O)[C@H]32)[C@@H](C)[C@@H]1O | 0.25 µg/mL (≈ 0.524 µM) | 0.5 µg/mL (≈ 1.05 µM) | 0.125 µg/mL (≈ 0.262 µM) | 0.5 µg/mL (≈ 1.05 µM) | 0.25 µg/mL (≈ 0.524 µM) | 0.5 µg/mL (≈ 1.05 µM)
4 | C=C[C@]1(C)C[C@@H](OC(=O)CSc2ccc([N+](=O)[O-])cn2)[C@]2(C)[C@H](C)CC[C@]3(CCC(=O)[C@H]32)[C@@H](C)[C@@H]1O | 0.25 µg/mL (≈ 0.484 µM) | 1 µg/mL (≈ 1.94 µM) | 0.5 µg/mL (≈ 0.968 µM) | 0.25 µg/mL (≈ 0.484 µM) | 0.25 µg/mL (≈ 0.484 µM) | 0.5 µg/mL (≈ 0.968 µM)
5 | C=C[C@]1(C)C[C@@H](OC(=O)CSc2ccncc2CO)[C@]2(C)[C@H](C)CC[C@]3(CCC(=O)[C@H]32)[C@@H](C)[C@@H]1O | 0.063 µg/mL (≈ 0.126 µM) | 0.063 µg/mL (≈ 0.126 µM) | 0.125 µg/mL (≈ 0.249 µM) | 0.063 µg/mL (≈ 0.126 µM) | 0.063 µg/mL (≈ 0.126 µM) | 0.063 µg/mL (≈ 0.126 µM)
6 | C=C[C@]1(C)C[C@@H](OC(=O)CSc2cncc(NC(=O)CN3CCCCC3)c2)[C@]2(C)[C@H](C)CC[C@]3(CCC(=O)[C@H]32)[C@@H](C)[C@@H]1O | 0.125 µg/mL (≈ 0.204 µM) | 0.125 µg/mL (≈ 0.204 µM) | 0.125 µg/mL (≈ 0.204 µM) | 0.125 µg/mL (≈ 0.204 µM) | 0.125 µg/mL (≈ 0.204 µM) | 0.25 µg/mL (≈ 0.409 µM)
7 | C=C[C@]1(C)C[C@@H](OC(=O)CSc2ncccc2N)[C@]2(C)[C@H](C)CC[C@]3(CCC(=O)[C@H]32)[C@@H](C)[C@@H]1O | 0.125 µg/mL (≈ 0.257 µM) | 0.5 µg/mL (≈ 1.03 µM) | 0.25 µg/mL (≈ 0.514 µM) | 0.25 µg/mL (≈ 0.514 µM) | 0.125 µg/mL (≈ 0.257 µM) | 0.25 µg/mL (≈ 0.514 µM)
8 | C=C[C@]1(C)C[C@@H](OC(=O)CSc2cncc(/C=N/OC)c2)[C@]2(C)[C@H](C)CC[C@]3(CCC(=O)[C@H]32)[C@@H](C)[C@@H]1O | 0.25 µg/mL (≈ 0.473 µM) | 0.125 µg/mL (≈ 0.236 µM) | 0.5 µg/mL (≈ 0.946 µM) | 0.125 µg/mL (≈ 0.236 µM) | 0.25 µg/mL (≈ 0.473 µM) | 0.25 µg/mL (≈ 0.473 µM)
9 | C=C[C@]1(C)C[C@@H](OC(=O)CSc2ncccc2CO)[C@]2(C)[C@H](C)CC[C@]3(CCC(=O)[C@H]32)[C@@H](C)[C@@H]1O | 0.125 µg/mL (≈ 0.249 µM) | 0.125 µg/mL (≈ 0.249 µM) | 0.125 µg/mL (≈ 0.249 µM) | 0.125 µg/mL (≈ 0.249 µM) | 0.063 µg/mL (≈ 0.126 µM) | 0.125 µg/mL (≈ 0.249 µM)
10 | C=C[C@]1(C)C[C@@H](OC(=O)CSc2cncc(NC(=O)CNCCO)c2)[C@]2(C)[C@H](C)CC[C@]3(CCC(=O)[C@H]32)[C@@H](C)[C@@H]1O | 0.25 µg/mL (≈ 0.425 µM) | 0.125 µg/mL (≈ 0.213 µM) | 0.063 µg/mL (≈ 0.107 µM) | 0.125 µg/mL (≈ 0.213 µM) | 0.125 µg/mL (≈ 0.213 µM) | 0.25 µg/mL (≈ 0.425 µM)
11 | C=C[C@]1(C)C[C@@H](OC(=O)CSc2cncc(O)c2)[C@]2(C)[C@H](C)CC[C@]3(CCC(=O)[C@H]32)[C@@H](C)[C@@H]1O | 0.063 µg/mL (≈ 0.129 µM) | 0.125 µg/mL (≈ 0.256 µM) | 0.063 µg/mL (≈ 0.129 µM) | 0.063 µg/mL (≈ 0.129 µM) | 0.063 µg/mL (≈ 0.129 µM) | 0.063 µg/mL (≈ 0.129 µM)
12 | C=C[C@]1(C)C[C@@H](OC(=O)CSc2ncccc2[N+](=O)[O-])[C@]2(C)[C@H](C)CC[C@]3(CCC(=O)[C@H]32)[C@@H](C)[C@@H]1O | 0.063 µg/mL (≈ 0.122 µM) | 0.125 µg/mL (≈ 0.242 µM) | 0.125 µg/mL (≈ 0.242 µM) | 0.125 µg/mL (≈ 0.242 µM) | 0.125 µg/mL (≈ 0.242 µM) | 0.063 µg/mL (≈ 0.122 µM)
13 | C=C[C@]1(C)C[C@@H](OC(=O)CSc2cc(/C=N/O)ccn2)[C@]2(C)[C@H](C)CC[C@]3(CCC(=O)[C@H]32)[C@@H](C)[C@@H]1O | 0.125 µg/mL (≈ 0.243 µM) | 0.125 µg/mL (≈ 0.243 µM) | 0.25 µg/mL (≈ 0.486 µM) | 0.063 µg/mL (≈ 0.122 µM) | 0.063 µg/mL (≈ 0.122 µM) | 0.125 µg/mL (≈ 0.243 µM)
14 | C=C[C@]1(C)C[C@@H](OC(=O)CSc2cncc(NC(=O)CN3CC[C@H](O)C3)c2)[C@]2(C)[C@H](C)CC[C@]3(CCC(=O)[C@H]32)[C@@H](C)[C@@H]1O | 0.125 µg/mL (≈ 0.204 µM) | 0.125 µg/mL (≈ 0.204 µM) | 0.125 µg/mL (≈ 0.204 µM) | 0.125 µg/mL (≈ 0.204 µM) | 0.125 µg/mL (≈ 0.204 µM) | 0.125 µg/mL (≈ 0.204 µM)
15 | C=C[C@]1(C)C[C@@H](OC(=O)CSc2cncc(/C=N/O)c2)[C@]2(C)[C@H](C)CC[C@]3(CCC(=O)[C@H]32)[C@@H](C)[C@@H]1O | 0.063 µg/mL (≈ 0.122 µM) | 0.063 µg/mL (≈ 0.122 µM) | 0.063 µg/mL (≈ 0.122 µM) | 0.063 µg/mL (≈ 0.122 µM) | 0.063 µg/mL (≈ 0.122 µM) | 0.063 µg/mL (≈ 0.122 µM)
16 | C=C[C@]1(C)C[C@@H](OC(=O)CSc2ncccn2)[C@]2(C)[C@H](C)CC[C@]3(CCC(=O)[C@H]32)[C@@H](C)[C@@H]1O | 0.063 µg/mL (≈ 0.133 µM) | 0.125 µg/mL (≈ 0.264 µM) | 0.125 µg/mL (≈ 0.264 µM) | 0.125 µg/mL (≈ 0.264 µM) | 0.125 µg/mL (≈ 0.264 µM) | 0.063 µg/mL (≈ 0.133 µM)
